# Source: US10940110B2, “Method and system for the treatment of chronic COPD with nebulized anticholinergic administrations” (Sunovion Respiratory Development Inc., priority 2008, dated 2021)
# Tested on: patients with COPD
# Conditions: 200 μg
# [1] = high efficiency nebulizer, 24 hour time point
# Method: GIS 200 μg/0.5 mL oral inhalation via eFlow.
# GIS 75 μg/0.5 mL oral inhalation via eFlow; 2. GIS 500 μg/0.5 mL oral; 3. GIS 1000 n/0.5 mL oral inhalation via eFlow.
# The primary efficacy variable was serial spirometry throughout the 36 hour period after dosing. The spirometry assessments include forced expiratory volume in one second (FEV1), forced vital capacity (FVC), peak expiratory flow rate (PEFR), FEV1% of predicted normal.
structure (smiles),measurement,setting,value
"C[N+]1(C)CCC(OC(=O)C(O)(c2ccccc2)C2CCCC2)C1 (centres unmarked) [glycopyrrolate, 3-[(cyclopentylhydroxyphenylacetyl)oxy]-1,1-dimethylpyrrolidinium]",increase in FEV1 above baseline (% change from baseline),"conventional jet nebulizer, 12 hr time point and beyond",≤ 10%
same,increase in FEV1 above baseline,"conventional jet nebulizer, any time point after 12 hr",≤ 100 mL
same,mean improvement in peak lung function (peak FEV1) compared to the same dose in the conventional jet nebulizer,high efficiency nebulizer vs conventional jet nebulizer,about 45 mL
same,improvement in FEV1 above baseline (% change from baseline),[1],greater than 10%
same,"improvement in lung function, FEV1 above baseline",[1],greater than 100 mL
